Data on ten molecules can be found in patent US5633437A, “Gene exhibiting resistance to acetolactate synthase inhibitor herbicides” (Sandoz Ltd., priority 1994, dated 1997).

The subject of data set [1] is R-XANST (resistant cocklebur biotype). Put plainly: Herbicidal evaluation, post-emergence spray on resistant cocklebur. It is filed as in vivo, cocklebur (Xanthium sp.). How it is done:
(§1) Seeds of S-XANST and R-XANST are planted one per pot in soil mix. Pots are placed on a heating mat and the soil temperature increased from about 65° F. to about 90° F. At the 2-3 leaf stage, plants are treated with test herbicides using a linear track laboratory sprayer calibrated to deliver 42.5 GPA. Plants are watered by subirrigation after herbicide application. Observations of percent control are made 21 days after herbicide application. The test ALS inhibitor herbicides are listed below including their chemical class:
(§2) The effect of the various ALS inhibitors against R-XANST and S-XANST is depicted in FIG. 5. The results are reported as % control wherein 100% injury is equal to complete control as determined by growth. All treatments are replicated four times in a randomized complete block design.
(§3) Additionally tests are preformed at much higher herbicide rates to determine the extent of resistance. […] Glean tested at 1.56 lb ai/A, a rate of 100 times field use, provided 88% injury to R-XANST. Pursuit provides 90% injury to R-XANST when used at 100 times the normal field rate, (6.25 lb ai/A).

The target of data set [2] is T1, acetolactate synthase (ALS), resistant enzyme from R-XANST (Xanthium sp., UniProt Q41716).
T1 construct: mature chloroplast form
T1 sequence (Q41716 78-648): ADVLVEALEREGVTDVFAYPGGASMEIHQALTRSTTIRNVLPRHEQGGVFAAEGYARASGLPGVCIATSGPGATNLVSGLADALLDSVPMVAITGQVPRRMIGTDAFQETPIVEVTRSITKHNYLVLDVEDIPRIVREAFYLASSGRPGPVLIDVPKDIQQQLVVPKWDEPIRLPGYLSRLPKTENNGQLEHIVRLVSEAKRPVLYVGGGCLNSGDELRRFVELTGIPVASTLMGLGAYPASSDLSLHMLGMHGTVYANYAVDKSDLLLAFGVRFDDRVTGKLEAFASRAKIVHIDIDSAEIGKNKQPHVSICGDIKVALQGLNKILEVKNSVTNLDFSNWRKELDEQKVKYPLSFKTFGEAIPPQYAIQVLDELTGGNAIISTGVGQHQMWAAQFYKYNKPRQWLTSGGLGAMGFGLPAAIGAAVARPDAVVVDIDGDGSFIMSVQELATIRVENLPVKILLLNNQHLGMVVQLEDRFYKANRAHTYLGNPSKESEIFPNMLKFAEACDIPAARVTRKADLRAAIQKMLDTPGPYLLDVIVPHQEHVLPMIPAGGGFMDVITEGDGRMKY
Put plainly: ALS enzymatic evaluation, resistant enzyme isolated from R-XANST. It is filed as biochemical. Particulars: ALS from R-XANST leaves, 40% ammonium sulfate fraction; read-out: I50 (M) Resistant. How it is done:
(§4) Cocklebur is grown in a greenhouse. Five grams of fresh green leaf tissue are ground to a powder in a mortar at the temperature of liquid nitrogen. The powder is extracted with 100 ml of buffer containing 50 mM N-[2-hydroxyethyl]piperazine-N'-[3-propanesulfonic acid], (EPPS); pH 7.2; 5 mM MgCl2; 2 mM EDTA; 1 mM valine; 1 mM leucine; 10% glycerol; 10 mM pyruvate; 5 mM Dithiothreitol; 1% polyvinyl polypyrrolidone (PVPP) and […] flavin adenine dinucleotide and filtered through cheesecloth. The filtrate was centrifuged at 15,000×g for 15 min.
(§5) The procedures used for the isolation of ALS from cocklebur are similar to those known in the art. The supernatant resulting from centrifugation of the crude extract is brought to 40% ammonium sulfate. The ammonium sulfate pellet is not frozen and is resuspended in standard buffer used for I50 determinations and then gel-filtered through the same buffer. This preparation is used for determinations of Km for pyruvate and I50. The Km is equal to the substrate concentration at which the initial reaction velocity is half maximal and also referred to as the Michaelis-Menten constant. The Km is determined using Lineweaver-Burke double reciporcial plots. I50 is the concentration in which 50% inhibition is observed and is determined from linear regression analysis of the linear portion of the dose/response curve.
(§6) The I50 values by various ALS inhibitors are determined on both sensitive enzymes isolated from S-XANST and resistant enzymes isolated from R-XANST and are reported in Table 1.

The subject of data set [3] is acetolactate synthase (ALS), resistant enzyme from R-XANST. Described as above. Particulars: ratio I50 resistant / I50 sensitive enzyme. It is filed as biochemical. How it is done: as §4, §5, §6
The test system of data set [4] is S-XANST (susceptible cocklebur). Kind of data set: Herbicidal evaluation, post-emergence spray on susceptible cocklebur. It is filed as in vivo, cocklebur (Xanthium sp.). How it is done:
as §1, §2, §3

The target of data set [5] is T2, acetolactate synthase (ALS), sensitive enzyme from S-XANST (Xanthium sp., UniProt Q41717).
T2 construct: mature chloroplast form
T2 sequence (Q41717 78-648): T1 sequence (Q41716 78-648) with L181F, H192Q, S445N, L475W
Put plainly: ALS enzymatic evaluation, sensitive enzyme isolated from S-XANST. It is filed as biochemical, cocklebur (Xanthium sp.). The following applies: ALS from S-XANST leaves, 40% ammonium sulfate fraction; read-out: I50 (M) Sensitive. How it is done:
as §4
as §5, with “I50 is the concentration in which 50% inhibition is observed and is determined from linear regression analysis of the linear portion of the dose/response curve.” left out
as §6

Substrate in data set [6]: CC(=O)C(=O)O
Kind of data set: ALS enzymatic evaluation, resistant enzyme isolated from R-XANST. The format is biochemical. The following applies: other: R-XANST enzyme; Lineweaver-Burke plots; pH 7.2. How it is done: as §4
as §5, with “I50 is the concentration in which 50% inhibition is observed and is determined from linear regression analysis of the linear portion of the dose/response curve.” left out
as §6

Changes are numbered by the printed parent chain. Counter-ions that a name gives are not always drawn. Some results are limits rather than exact numbers.

For the molecule `CCc1cnc(C2=NC(C)(C(C)C)C(=O)N2)c(C(=O)O)c1` (single isomer, unassigned; (+)) [Imazethapyr, (+)-2-[4,5-dihydro-4-methyl-4-(1-methylethyl)-5-oxo-1H-imidazole-2-yl]-5-ethyl-3-pyridinecarboxylic acid], the “injury to R-XANST” value in data set [1] (100 times the normal field rate, 6.25 lb ai/A) is on record as 90%. In addition, in data set [2], the IC50 amounted to 0.0001 M. In data set [3], the “Fold-resistance (R/S)” value was 100.
Regarding `Cc1ccn2nc(S(=O)(=O)Nc3c(F)cccc3F)nc2n1` [Broadstrike], in data set [4] (0.01 lb ai/A), the “injury to S-XANST” value was “greater than 95%”. Further, in data set [1] (6 lb ai/A), the “injury on R-XANST” value came out at 25%. Besides, the IC50 in data set [2] was 0.0006 M. In addition, in data set [3], the “Fold-resistance (R/S)” value is given as 10,000.
Turning to `COc1nc(C)nc(NC(=O)NS(=O)(=O)c2ccccc2Cl)n1` [Chlorsulfurson, 2-chloro-N-[[CH-methoxy-6-methyl-1,3,5-triazin-2-yl-amino]carbonyl]benzenesulfonamide], in data set [1] (1.56 lb ai/A, 100 times field use), the “injury to R-XANST” value was 88%. The IC50 in data set [2] amounted to 5e-05 M. Moreover, the “Fold-resistance (R/S)” value in data set [3] is on record as 6,250.
Take `COc1cc(OC)nc(C(=O)c2c(Cl)ccc(Cl)c2C(=O)O)n1` [Di-Cl benzoate]: the IC50 in data set [2] worked out at 0.0006 M. For the same molecule, the “Fold-resistance (R/S)” value in data set [3] was 2,200.
`CC(C)C1(C)N=C(c2nc3ccccc3cc2C(=O)O)NC1=O` (stereo not drawn) [Imazaquin, 2-[4,5-dihydro-4-methyl-4-(1-methylethyl)-5-oxo-1H-imidazole-2-yl]-3-quinolinecarboxylic acid]: the IC50 in data set [2] is 0.0001 M. In addition, the “Fold-resistance (R/S)” value in data set [3] was 250.
Take `CC(C)C[C@H](N)C(=O)O` [Leucine]: the IC50 in data set [2] worked out at 0.001 M. The “Fold-resistance (R/S)” value in data set [3] was 1.
As to `COc1cc(OC)nc(C(=O)c2c(Cl)ccc(Cl)c2C(=O)O)n1` [SAN 2, 3-6-Dichloro-2-[(4,6-dimethoxy-2-pyrimidinyl)carbonyl]benzoic acid, isopropyl ammonium salt], the “injury to S-XANST” value in data set [4] (0.1 lb ai/A, 2-3 leaf stage, 21 days after application) was “greater than 95%”. The “injury to R-XANST” value in data set [1] (30 lb ai/A, 21 days after application) is ≤ 50%.
Regarding `COc1cc(OC)nc(Sc2cccc(Cl)c2C(=O)O)n1` [Staple], in data set [4] (0.03 lb ai/A, 21 days after application), the “injury to S-XANST” value is “greater than 90%”. Besides, the “injury to R-XANST” value in data set [1] (highest test rate, 9.0 lb ai/A) is on record as ≤ 55%.
As for Picolinate, the IC50 in data set [5] turned out to be 9e-08 M; in data set [2] it was 0.001 M. In addition, the “Fold-resistance (R/S)” value in data set [3] is recorded as 1,100.

B1: acetolactate synthase (ALS), resistant enzyme from R-XANST (Xanthium sp.) (protein)
chain: T1 sequence (Q41716 78-648)
notes: mature chloroplast form
As to B1, in data set [6], the Km (as a rule, the substrate concentration at which the rate is half of its maximum) worked out at 6 mM.
